Assay [1] has as its system human MØ. The experiment in a line: TNFα production by human MØ (ELISA of culture supernates). The assay is classed as cell-based.
The subject of assay [2] is human MØ. As to the kind of experiment: IL-10 production by human MØ (ELISA of culture supernates). Type of assay: cell-based. A general note: In an ELISA, binding on a coated surface is turned into a signal by an enzyme label.
The next assay has as its system p44/42 (Erk 1/2). As to the kind of experiment: Immunoblot for activation (phosphorylation) of Erk 1/2 in human MØ. Type of assay: cell-based. To be noted: after addition of Hsp 27 2 μg/ml. How it is done: Monocytes (1.5×10^6 cells) were cultured in serum free medium for 2 hrs and then stimulated with Hsp 27 (2 μg/ml) for different time periods (1 min to 3 hrs). Western blot analysis was performed, essentially as described previously (29). Briefly, cells were lysed using a buffer consisting of 1% Nonidet P-40, 50 mM HEPES (pH 7.2), 100 mM NaCl, 2 mM EDTA, 1 mM pyrophosphate, 2 mM Na3VO4, 10 mM NaF, 1 mM PMSF, 10 μg/ml leupeptin and 10 μg/ml aprotinin. Postnuclear supernates were harvested after centrifugation of the lysate for 15 min at 14,000 g at 4° C. […] Antibody-antigen complexes were detected with the aid of HRP-conjugated anti-rabbit secondary antibody (1:2000 dilution) (New England Biolab) followed by detection of the bands with ECL reagent (NEN Life Science Products). […]
(§1) To assess the activation (phosphorylation) of three different mitogen-activated protein kinases (MAPK)—p38, p44/42 (Erk 1/2) and p46/54 (SAPK/JNK-1/2) after Hsp 27 addition, we stimulated human MØ at different time points and measured activated p38, Erk 1/2 and JNK 1/2 using the respective antibodies against the phosphorylated forms of the MAPKs. […]
(In western blotting, separated proteins are transferred to a membrane and probed.)

The next assay relates to immature dendritic cells. As to the kind of experiment: Maturation of immature dendritic cells (CD83 expression). Type of assay: cell-based. The protocol: Preferably, the MØ are not brought into contact with Hsp27 before their conversion into immature dendritic cells, because Hsp27 inhibits the conversion. After conversion, however, Hsp27 acts as a potent promoter of maturation by the immature dendritic cells. […] Dendritic cell maturation is detectable as early as 24 hours after initiation of Hsp27 treatment. Preferably, however, Hsp27-induced maturation is allowed to proceed for 48 to 72 hours. One useful indication of dendritic cell maturation is expression of CD83.
(§2) Hsp27 added to MØ cultures at the initiation of conversion inhibited differentiation of MØ to dendritic cells mediated or promoted by the combination of IL-4 plus GM-CSF.

Assay [3] deals with IL-10 mRNA in human monocytes. The experiment in a line: RNAse protection assay of IL-10 mRNA in human monocytes. The assay is classed as cell-based.
For a further assay, the system named is MAPKAPKinase-2. Type of assay: cell-based, human.
A further assay deals with Normal control monocytes. Type of assay: cell-based, human.
Another assay deals with MØ. As to the kind of experiment: MØ conversion (differentiation) into immature dendritic cells by IL-4 plus GM-CSF. Type of assay: cell-based. To be noted: Hsp27 added to MØ cultures at the initiation of conversion.
From the text: In a preferred method for obtaining dendritic cells in vitro, isolated MØ are are first stimulated to undergo conversion (differentiation) into immature dendritic cells, and then stimulated to mature into fully active or competent dendritic cells. Conversion can be stimulated or promoted in vitro by any effective treatment. For example, conversion can be promoted by treating the MØ with an effective amount of IL-4 and an effective amount of GM-CSF, in accordance with conventional techniques. Typically, the IL-4 and GM-CSF treatment is for approximately 3-4 days. One indication of conversion is expression of CD1a. For guidance concerning in vitro conversion of MØ to immature dendritic cells, see, e.g., Chapius et al., 1997, Eur. J. Immunol. 27:431-441.
as §2

The subject of a further assay is p46/54 (SAPK/JNK-1/2). The experiment in a line: Immunoblot for activation (phosphorylation) of SAPK/JNK in human MØ. Type of assay: cell-based. How it is done: (§3) Monocytes (1.5×10^6 cells) were cultured in serum free medium for 2 hrs and then stimulated with Hsp 27 (2 μg/ml) for different time periods (1 min to 3 hrs). Western blot analysis was performed, essentially as described previously (29). Briefly, cells were lysed using a buffer consisting of 1% Nonidet P-40, 50 mM HEPES (pH 7.2), 100 mM NaCl, 2 mM EDTA, 1 mM pyrophosphate, 2 mM Na3VO4, 10 mM NaF, 1 mM PMSF, 10 μg/ml leupeptin and 10 μg/ml aprotinin. Postnuclear supernates were harvested after centrifugation of the lysate for 15 min at 14,000 g at 4° C. Equal amounts of postnuclear lysates were boiled for 5 min in the presence of SDS sample buffer (reducing) and subjected to SDS-12% PAGE and then transferred to nitrocellulose membrane (Millipore Corp, Bedford, Mass.) in transfer buffer [25 mM Tris, 192 mM glycine, pH 8.3, 20% (V/V) methanol]. Membranes were first rinsed in TTBS (TBS with 0.1% Tween 20) and then blocked for 1 hr at room temperature in TTBS-5% W/V nonfat dry milk. The membrane was then incubated overnight at 4° C. with antiphospho-p38 MAPK antibody (rabbit polyclonal; New England Biolab) (1:1000 dilution in TTBS-1% BSA). Antibody-antigen complexes were detected with the aid of HRP-conjugated anti-rabbit secondary antibody (1:2000 dilution) (New England Biolab) followed by detection of the bands with ECL reagent (NEN Life Science Products). […]
as §1

The next assay has as its system p38 MAPK. The experiment in a line: Immunoblot for activation (phosphorylation) of p38 MAPK in human MØ. Type of assay: cell-based. To be noted: after addition of Hsp 27 2 μg/ml. The protocol:
as §3, §1

Setting [4] is: after addition of Hsp 27 2 μg/ml.

Five compounds from patent US20010049357A1, “Use of Hsp27 as an anti-inflammatory agent” (priority 1999, published 2001) can be followed below.

Like-named read-outs stand apart in the source and are kept apart here.

Consider `COc1cccc(-c2cc(=O)c3ccccc3o2)c1N` [PD98059, reference compound], for which the “TNFα induced by Hsp 27 blocked” value in the assay on human MØ [1] (inhibitor 10 μM for 2 hrs before Hsp 27 2 μg/ml) stood at 68%. In the assay with human MØ [2], the “effect on Hsp 27 induced MØ IL-10 production” value is “did not have any inhibitory effect”.
With `C[S+]([O-])c1ccc(-c2nc(-c3ccncc3)c(-c3ccc(F)cc3)[nH]2)cc1` (centres unmarked) [SB203580, reference compound], the “TNFα induced by Hsp 27 blocked” value in the assay with human MØ [1] is 90%. Besides, the “inhibition of Hsp 27 induced MØ IL-10 production” value with human MØ [2] was “approximately 80%”.
With TNFα, the “increase in IL-10 levels” value with human MØ [2] (exogenous addition of 100 U/ml TNFα) is 1.5 fold.
Take heat shock protein-27 [Hsp 27]: in the assay on human MØ [1] (16-18 hrs), the “MØ TNFα production” value amounted to 483 ± 74 pg/mL. For the same compound, in the assay with human MØ [2], the “IL-10(pg/10^6 cells/ml) x ± SEM” value amounted to 5267 ± 610 pg/10^6 cells/ml, the “MØ IL-10 production” value is “approximately 3400 pg/ml”, the “increase in IL-10 as compared to SEB+MDP” value is on record as “approximately 3 fold” and the “increase in IL-10 relative to SEB+MDP” value is reported as 2.5-3.5. Moreover, the “optimum concentration for Hsp 27 induced MØ IL-10 production” value in the assay with human MØ [2] (dose-dependent, FIG. 1B) fell in the range of 1 to 5 µg/mL. In the assay with p44/42 (Erk 1/2), the “time at which Erk 1/2 phosphorylation was clearly increased” value amounted to 20 min and the “time of maximal stimulation of Erk 1/2” value was determined as 40 min. Moreover, the “effect on maturation of immature DC to mature antigen-presenting DC” value in the assay on immature dendritic cells (Hsp27 added after initial differentiation into DC (day 4 of induction)) is “strongly promoted”. Also, the “time at which dendritic cell maturation is detectable” value in the assay with immature dendritic cells (after initiation of Hsp27 treatment) was not below 24 h. Further, the “IL-10 mRNA levels relative to control MDP+SEB induced levels” value in assay [3] turned out to be 3.2 fold. In addition, in assay [3] (Hsp 27 2 μg/ml, 8-9 hrs), the “increase in IL-10 mRNA levels compared to only adherence stimulated MØ” value is recorded as approximately 7.2 fold. Besides, in the assay with MAPKAPKinase-2, the “MAPKAPKinase-2 activity versus adherence stimulated untreated MØ lysate” value is “significantly increased”. In the assay on Normal control monocytes, the “IL-12(pg/10^6 cells/ml) x ± SEM” value worked out at 3428 ± 1102 pg/10^6 cells/ml, the “increase in IL-12 as compared to SEB+MDP” value is listed as “approximately 3 fold” and the “increase in IL-12 relative to SEB+MDP” value is 2.5-3.5. For the same compound, the “effect on differentiation of MØ to dendritic cells promoted by IL-4 plus GM-CSF” value with MØ is recorded as “inhibited”. In the assay with p46/54 (SAPK/JNK-1/2) (setting [4]), the “time at which JNK 1/2 phosphorylation was clearly increased” value worked out at 20 min and the “time of maximal stimulation of JNK 1/2” value was found to be 40 min. Further, the “induction of P-p54 JNK” value in the assay on p46/54 (SAPK/JNK-1/2) (compared to activation of p38 and Erk) is on record as “only minimal”. In addition, in the assay on p38 MAPK, the “persistence of p38 MAPK activation” value is given as “up to 180 min”, the “time at which p38 MAPK phosphorylation was clearly increased” value is recorded as 20 min and the “time of maximal stimulation of p38 MAPK” value was determined as 40 min.
With polymyxin B [reference compound], the “effect on Hsp 27 induced MØ IL-10 production” value in the assay on human MØ [2] (polymyxin B 200 U/ml together with Hsp 27 2 μg/ml) is given as “could not inhibit”.
